Assay results reported in PubChem BioAssay (NCI).
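All cell lines were grown in 96-well plates and treated with compound for 48 hours. GI50 is the concentration that inhibits growth by half. Definition used: TGI = concentration required for complete inhibition of growth.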

Assays:
Assay in all cases: NCI tumour cell line growth inhibition, 48 h
786-0 renal = tested on: 786-0 renal
A498 renal = tested on: A498 renal
A549 NSCLC = tested on: A549 NSCLC
ACHN renal = tested on: ACHN renal
BT-549 breast = tested on: BT-549 breast
CAKI-1 renal = tested on: CAKI-1 renal
CCRF-CEM leukemia = tested on: CCRF-CEM leukemia
COLO 205 colon = tested on: COLO 205 colon
DU-145 prostate = tested on: DU-145 prostate
HCC-2998 colon = tested on: HCC-2998 colon
HCT-116 colon = tested on: HCT-116 colon
HCT-15 colon = tested on: HCT-15 colon
HL-60(TB) leukemia = tested on: HL-60(TB) leukemia
HOP-62 NSCLC = tested on: HOP-62 NSCLC
HOP-92 NSCLC = tested on: HOP-92 NSCLC
HS 578T breast = tested on: HS 578T breast
HT29 colon = tested on: HT29 colon
IGROV1 ovarian = tested on: IGROV1 ovarian
K-562 leukemia = tested on: K-562 leukemia
KM12 colon = tested on: KM12 colon
LOX IMVI melanoma = tested on: LOX IMVI melanoma
M14 melanoma = tested on: M14 melanoma
MALME-3M melanoma = tested on: MALME-3M melanoma
MCF7 breast = tested on: MCF7 breast
MDA-MB-231 breast = tested on: MDA-MB-231 breast
MDA-MB-435 = tested on: MDA-MB-435
MOLT-4 leukemia = tested on: MOLT-4 leukemia
NCI-H226 lung = tested on: NCI-H226 lung
NCI-H23 lung = tested on: NCI-H23 lung
NCI-H460 lung = tested on: NCI-H460 lung
NCI-H522 lung = tested on: NCI-H522 lung
NCI/ADR-RES ovarian = tested on: NCI/ADR-RES ovarian
OVCAR-3 ovarian = tested on: OVCAR-3 ovarian
OVCAR-4 ovarian = tested on: OVCAR-4 ovarian
OVCAR-5 ovarian = tested on: OVCAR-5 ovarian
OVCAR-8 ovarian = tested on: OVCAR-8 ovarian
PC-3 prostate = tested on: PC-3 prostate
RPMI-8226 leukemia = tested on: RPMI-8226 leukemia
RXF 393 renal = tested on: RXF 393 renal
SF-268 CNS = tested on: SF-268 CNS
SF-295 CNS = tested on: SF-295 CNS
SF-539 CNS = tested on: SF-539 CNS
SK-MEL-2 melanoma = tested on: SK-MEL-2 melanoma
SK-MEL-28 melanoma = tested on: SK-MEL-28 melanoma
SK-MEL-5 melanoma = tested on: SK-MEL-5 melanoma
SK-OV-3 ovarian = tested on: SK-OV-3 ovarian
SN12C renal = tested on: SN12C renal
SNB-19 CNS = tested on: SNB-19 CNS
SNB-75 CNS = tested on: SNB-75 CNS
SR leukemia = tested on: SR leukemia
SW-620 colon = tested on: SW-620 colon
T-47D breast = tested on: T-47D breast
TK-10 renal = tested on: TK-10 renal
U251 CNS = tested on: U251 CNS
UACC-257 melanoma = tested on: UACC-257 melanoma
UACC-62 melanoma = tested on: UACC-62 melanoma
UO-31 renal = tested on: UO-31 renal

## CC1(C)CC(=O)c2c(C(F)(F)F)nn(-c3ccc(C(N)=O)c(NC4CCC(OC(=O)CN)CC4)c3)c2C1 (centres undefined)
786-0 renal
  GI50: 16200 nM
  TGI: > 100000 nM
A498 renal
  GI50: 303 nM
  TGI: > 100000 nM
A549 NSCLC
  GI50: 66.6 nM
  TGI: 32800 nM
ACHN renal
  GI50: 62.2 nM
  TGI: > 100000 nM
BT-549 breast
  GI50: 5240 nM
  TGI: 41700 nM
CAKI-1 renal
  GI50: 2900 nM
  TGI: > 100000 nM
CCRF-CEM leukemia
  GI50: 33.9 nM
  TGI: > 100000 nM
COLO 205 colon
  GI50: 28.9 nM
  TGI: 8030 nM
DU-145 prostate
  GI50: 88.3 nM
  TGI: > 100000 nM
HCC-2998 colon
  GI50: 195 nM
  TGI: 13200 nM
HCT-116 colon
  GI50: 40.5 nM
  TGI: 31600 nM
HCT-15 colon
  GI50: 120 nM
  TGI: > 93600 nM
HL-60(TB) leukemia
  GI50: 39.8 nM
  TGI: 13200 nM
HOP-62 NSCLC
  GI50: 78.5 nM
  TGI: > 100000 nM
HOP-92 NSCLC
  GI50: 124 nM
  TGI: 1040 nM
HS 578T breast
  GI50: 9730 nM
  TGI: > 100000 nM
HT29 colon
  GI50: 32.1 nM
  TGI: > 100000 nM
IGROV1 ovarian
  GI50: 42.2 nM
  TGI: > 39200 nM
K-562 leukemia
  GI50: 36 nM
  TGI: > 79400 nM
KM12 colon
  GI50: 43.4 nM
  TGI: > 100000 nM
LOX IMVI melanoma
  GI50: 61.6 nM
  TGI: 330 nM
M14 melanoma
  GI50: 60.8 nM
  TGI: 26500 nM
MALME-3M melanoma
  GI50: 46.8 nM
  TGI: > 100000 nM
MCF7 breast
  GI50: < 18.3 nM
  TGI: > 100000 nM
MDA-MB-231 breast
  GI50: 112 nM
  TGI: 31500 nM
MDA-MB-435
  GI50: 41.8 nM
  TGI: > 47300 nM
MOLT-4 leukemia
  GI50: 43.7 nM
  TGI: 24400 nM
NCI-H226 lung
  GI50: 103 nM
  TGI: > 56400 nM
NCI-H23 lung
  GI50: 93.5 nM
  TGI: > 100000 nM
NCI-H460 lung
  GI50: 50.2 nM
  TGI: > 100000 nM
NCI-H522 lung
  GI50: 38.7 nM
  TGI: 20100 nM
NCI/ADR-RES ovarian
  GI50: 12500 nM
  TGI: > 100000 nM
OVCAR-3 ovarian
  GI50: 159 nM
  TGI: > 100000 nM
OVCAR-4 ovarian
  GI50: > 25100 nM
  TGI: > 100000 nM
OVCAR-5 ovarian
  GI50: 3700 nM
  TGI: > 100000 nM
OVCAR-8 ovarian
  GI50: 59.3 nM
  TGI: > 100000 nM
PC-3 prostate
  GI50: 68.8 nM
  TGI: > 100000 nM
RPMI-8226 leukemia
  GI50: 356 nM
  TGI: > 60100 nM
RXF 393 renal
  GI50: 157 nM
  TGI: 28800 nM
SF-268 CNS
  GI50: 271 nM
  TGI: > 100000 nM
SF-295 CNS
  GI50: 59.3 nM
  TGI: > 100000 nM
SF-539 CNS
  GI50: 364 nM
  TGI: 20800 nM
SK-MEL-2 melanoma
  GI50: 68.3 nM
  TGI: > 100000 nM
SK-MEL-28 melanoma
  GI50: 52.2 nM
  TGI: 20600 nM
SK-MEL-5 melanoma
  GI50: 74.2 nM
  TGI: 18300 nM
SK-OV-3 ovarian
  GI50: 23.8 nM
  TGI: > 100000 nM
SN12C renal
  GI50: 69.2 nM
  TGI: > 100000 nM
SNB-19 CNS
  GI50: 142 nM
  TGI: > 100000 nM
SNB-75 CNS
  GI50: 634 nM
  TGI: > 100000 nM
SR leukemia
  GI50: 30.1 nM
  TGI: 17600 nM
SW-620 colon
  GI50: 38 nM
  TGI: > 100000 nM
T-47D breast
  GI50: 46.1 nM
  TGI: > 100000 nM
TK-10 renal
  GI50: 59.2 nM
  TGI: > 100000 nM
U251 CNS
  GI50: 73.1 nM
  TGI: > 54200 nM
UACC-257 melanoma
  GI50: 29 nM
  TGI: 97.2 nM
UACC-62 melanoma
  GI50: 50.7 nM
  TGI: 14500 nM
UO-31 renal
  GI50: 418 nM
  TGI: > 27100 nM
